{
  "source": "paper PMC2409929",
  "about": "(British Journal of Cancer, 2004)",
  "key": {"[1]": {"conditions": "140 mg m^−2: 10 mg m^−2 irinotecan as 14-day prolonged infusions, N=6, mean±s.d.; ref 16 (Herben et al, 1999); cited from earlier work"}, "[2]": {"tested_on": "patients with colorectal cancer", "conditions": "same schedule as arm A (350 mg m^−2 q3 weeks), cited from earlier work"}, "[3]": {"tested_on": "patients with metastatic colorectal cancer", "experiment": "Randomised phase II trial: tumour response (WHO criteria) and time-to-event efficacy", "conditions": "for Complete response, % / Duration of response and stabilisation, median (min–max) / Overall response (CR+PR), % / Partial response, % / Progressive disease, % / Response not evaluable, % / Stable disease, % / Survival, median (min–max) / Time to progression, median (min–max) / Time to treatment failure, median (min–max): intent-to-treat", "procedure": "A total of 17 centres in Europe participated in this study: two in Denmark, one in Ireland, four in The Netherlands, five in Norway, two in Sweden and three in Russia. […] Randomisation was performed centrally by Aventis Pharma R&D, Antony Cedex, France. […] A total of 37 evaluable patients per arm had to be included.\nPretreatment evaluation included a complete medical history and complete physical examination. Before each course, blood chemistry and haematology profiles were checked. Haematology was checked weekly. […] An external response review committee (ERRC) was established during the study to perform assessments of tumour response. […] Adverse events that were not reported according to NCI-CTC were graded as mild, moderate, severe, or life threatening.\nThe primary efficacy variable was response rate; overall response was defined as complete plus partial response. The secondary efficacy variables were the duration of response and stabilisation, time to progression, time to treatment failure and the overall survival. The differences between the four treatment groups were explored with the χ^2 test. Subsequent statistical tests were performed only in the case of evidence of difference to provide the significance level of difference. The Fisher exact test was used to compare treatment groups on categorical variables. For continuous variables, if a normal distribution could be assumed, Student's t-tests were used. Otherwise, they were analysed by nonparametric methods. Exact confidence intervals were calculated using binominal distribution probability. Censored data were analysed using the Kaplan–Meier method; the log-rank test was used to compare the groups. Differences in pharmacokinetic parameters between the four treatment arms were evaluated using one-way analysis of variance (ANOVA) combined with least significant difference (LSD) method (P was set at 0.05) and the Student's t-test was used to calculate the P-value of significant differences. The Pearson correlation coefficient (r) was calculated between dose and pharmacokinetic parameters. Statistical analyses were performed with SPSS (version 10.0.7 for Windows, SPSS Inc.). All tests for significance were two-tailed."}, "[4]": {"experiment": "Population pharmacokinetics, plasma total irinotecan and SN-38 (HPLC, NONMEM), first course", "format": "in vivo", "conditions": "human, iv", "description": "A pharmacokinetic evaluation was performed using a population approach; 88 patients from arms A, B and C were evaluated during the first course of treatment. The sampling strategy consisted of three different sampling schedules (with three sampling times in each): schedule 1: 30 min before the end of the infusion, 5 min and 3–4 h post-infusion; schedule 2: 30 min before the end of the infusion, 10 min and 5–7 h post-infusion; schedule 3: 5 min before the end of the infusion, 30 min and 20–24 h post-infusion. In a few cases, an additional sample was taken in schedules 1 and 2 after 24 h. All patients at one site were sampled according to the same schedule. The aim of the sampling strategy was to define the full kinetic profile over the whole population, by drawing a small number of samples at different times from a large number of patients.\nBlood samples (5 ml) were collected in heparinised tubes and immediately immersed in ice-water. Plasma was obtained by centrifugation of the samples (5 min; 3000 r.p.m., 4°C) and stored at −20°C or lower until analysis. […] Pharmacokinetic parameters were determined by the Bayesian approach with the concentration–time data from each patient, and a population model previously defined.\nOtherwise, they were analysed by nonparametric methods. […] All tests for significance were two-tailed."}, "[5]": {"conditions": "arm A (350 mg m^−2 90-min i.v. q3 weeks)"}, "[6]": {"conditions": "arm B (125 mg m^−2 90-min i.v. weekly × 4 q6 weeks)"}, "[7]": {"conditions": "arm C (250 mg m^−2 90-min i.v. q2 weeks)"}, "[8]": {"conditions": "arm D (10 mg m^−2 day^−1 14-day continuous infusion q3 weeks)"}, "[9]": {"conditions": "arm A, 350 mg m^−2 90-min i.v. infusion, N=30, mean±s.d."}, "[10]": {"conditions": "arm B, 125 mg m^−2 90-min i.v. infusion, N=28, mean±s.d."}, "[11]": {"conditions": "arm C, 250 mg m^−2 90-min i.v. infusion, N=30, mean±s.d."}},
  "note": "Where two headings read alike, the source gives them in different places.",
  "data": [
    {"smiles": "CCc1c2c(nc3ccc(OC(=O)N4CCC(N5CCCCC5)CC4)cc13)-c1cc3c(c(=O)n1C2)COC(=O)[C@]3(O)CC", "note": "[irinotecan]", "values": [
      {"measurement": "Irinotecan AUC", "setting": "[1]", "result": "12.8 ± 3.9", "unit": "µM·h"},
      {"measurement": "Median survival", "setting": "[2]; ref Cunningham et al (1998)", "result": 9.2, "unit": "months"},
      {"measurement": "Median survival", "setting": "[2]; ref Rougier et al (1997)", "result": 10.8, "unit": "months"},
      {"measurement": "Patients who discontinued treatment because of progressive disease", "setting": "[3]; [5]", "result": 81, "unit": "%"},
      {"measurement": "Complete response, %", "setting": "[3]; [5]", "result": 0, "unit": "%"},
      {"measurement": "Duration of response and stabilisation, median (min–max)", "setting": "[3]; [5]", "result": "5.9 (0.8–12.7) Months"},
      {"measurement": "Overall response (CR+PR), %", "setting": "[3]; [5]", "result": 7, "unit": "%"},
      {"measurement": "Partial response, %", "setting": "[3]; [5]", "result": 7, "unit": "%"},
      {"measurement": "Progressive disease, %", "setting": "[3]; [5]", "result": 46, "unit": "%"},
      {"measurement": "Response not evaluable, %", "setting": "[3]; [5]", "result": 2, "unit": "%"},
      {"measurement": "Stable disease, %", "setting": "[3]; [5]", "result": 44, "unit": "%"},
      {"measurement": "Survival, median (min–max)", "setting": "[3]; [5]", "result": "9.4 (1.0–15.3) Months"},
      {"measurement": "Time to progression, median (min–max)", "setting": "[3]; [5]", "result": "2.7 (1.0–12.8) Months"},
      {"measurement": "Time to treatment failure, median (min–max)", "setting": "[3]; [5]", "result": "2.7 (1.0–12.8) Months"},
      {"measurement": "Patients who discontinued treatment because of progressive disease", "setting": "[3]; [6]", "result": 57, "unit": "%"},
      {"measurement": "Complete response, %", "setting": "[3]; [6]", "result": 0, "unit": "%"},
      {"measurement": "Duration of response and stabilisation, median (min–max)", "setting": "[3]; [6]", "result": "3.9 (1.0–13.0) Months"},
      {"measurement": "Overall response (CR+PR), %", "setting": "[3]; [6]", "result": 5, "unit": "%"},
      {"measurement": "Partial response, %", "setting": "[3]; [6]", "result": 5, "unit": "%"},
      {"measurement": "Progressive disease, %", "setting": "[3]; [6]", "result": 19, "unit": "%"},
      {"measurement": "Response not evaluable, %", "setting": "[3]; [6]", "result": 14, "unit": "%"},
      {"measurement": "Stable disease, %", "setting": "[3]; [6]", "result": 62, "unit": "%"},
      {"measurement": "Survival, median (min–max)", "setting": "[3]; [6]", "result": "7.1 (0.6–13.5) Months"},
      {"measurement": "Time to treatment failure, median (min–max)", "setting": "[3]; [6]", "result": "2.3 (0.6–8.3) Months"},
      {"measurement": "Patients who discontinued treatment because of progressive disease", "setting": "[3]; [7]", "result": 61, "unit": "%"},
      {"measurement": "Complete response, %", "setting": "[3]; [7]", "result": 0, "unit": "%"},
      {"measurement": "Duration of response and stabilisation, median (min–max)", "setting": "[3]; [7]", "result": "5.3 (1.3–8.9) Months"},
      {"measurement": "Overall response (CR+PR), %", "setting": "[3]; [7]", "result": 11, "unit": "%"},
      {"measurement": "Partial response, %", "setting": "[3]; [7]", "result": 11, "unit": "%"},
      {"measurement": "Progressive disease, %", "setting": "[3]; [7]", "result": 33, "unit": "%"},
      {"measurement": "Response not evaluable, %", "setting": "[3]; [7]", "result": 2, "unit": "%"},
      {"measurement": "Stable disease, %", "setting": "[3]; [7]", "result": 54, "unit": "%"},
      {"measurement": "Survival, median (min–max)", "setting": "[3]; [7]", "result": "8.6 (0.7–16.7) Months"},
      {"measurement": "Time to progression, median (min–max)", "setting": "[3]; [7]", "result": "3.8 (0.0–8.9) Months"},
      {"measurement": "Time to treatment failure, median (min–max)", "setting": "[3]; [7]", "result": "3.2 (0.4–7.1) Months"},
      {"measurement": "Patients who discontinued treatment because of progressive disease", "setting": "[3]; [8]", "result": 55, "unit": "%"},
      {"measurement": "Complete response, %", "setting": "[3]; [8]", "result": 2, "unit": "%"},
      {"measurement": "Duration of response and stabilisation, median (min–max)", "setting": "[3]; [8]", "result": "3.4 (1.3–6.9) Months"},
      {"measurement": "Overall response (CR+PR), %", "setting": "[3]; [8]", "result": 5, "unit": "%"},
      {"measurement": "Partial response, %", "setting": "[3]; [8]", "result": 2, "unit": "%"},
      {"measurement": "Progressive disease, %", "setting": "[3]; [8]", "result": 34, "unit": "%"},
      {"measurement": "Response not evaluable, %", "setting": "[3]; [8]", "result": 18, "unit": "%"},
      {"measurement": "Stable disease, %", "setting": "[3]; [8]", "result": 43, "unit": "%"},
      {"measurement": "Survival, median (min–max)", "setting": "[3]; [8]", "result": "6.4 (1.1–15.1) Months"},
      {"measurement": "Time to progression, median (min–max)", "setting": "[3]; [8]", "result": "2.8 (0.0–7.0) Months"},
      {"measurement": "Time to treatment failure, median (min–max)", "setting": "[3]; [8]", "result": "1.7 (0.5–7.1) Months"},
      {"measurement": "Median survival", "setting": "[3]; range across the four arms A–D", "result": "6.4–9.4 months"},
      {"measurement": "Overall response rates", "setting": "[3]; range across the four arms A–D", "result": "5–11%"},
      {"measurement": "Time to progression", "setting": "[3]; range across the four arms A–D", "result": "2.7–3.8 months"},
      {"measurement": "Time to treatment failure", "setting": "[3]; range across the four arms A–D", "result": "1.7–3.2 months"},
      {"measurement": "AUC", "setting": "[4]; [9]", "result": "47.8 ± 19", "unit": "µM·h"},
      {"measurement": "Cmax", "setting": "[4]; [9]", "result": "7.91 ± 1.1", "unit": "µM"},
      {"measurement": "AUC", "setting": "[4]; [10]", "result": "14.6 ± 6.9", "unit": "µM·h"},
      {"measurement": "Cmax", "setting": "[4]; [10]", "result": "2.62 ± 0.39", "unit": "µM"},
      {"measurement": "AUC", "setting": "[4]; [11]", "result": "32.7 ± 13.5", "unit": "µM·h"},
      {"measurement": "Cmax", "setting": "[4]; [11]", "result": "5.52 ± 0.9", "unit": "µM"}
    ]}
  ]
}
